The structures appear in SMILES notation. Read-outs that look alike come from different tables or passages of the source. A value given as a limit tells only on which side of the number the result lay.

From patent US5492839A (priority 1994, dated 1996) come the findings set out here.

The target in assay [1] is T1, skeletal muscle ryanodine receptor (Oryctolagus cuniculus, UniProt P11716).
T1 construct: Rabbit skeletal muscle triads were prepared as previously described; from tissue; host or cells: rabbit skeletal muscle triads
T1 sequence (P11716 whole entry): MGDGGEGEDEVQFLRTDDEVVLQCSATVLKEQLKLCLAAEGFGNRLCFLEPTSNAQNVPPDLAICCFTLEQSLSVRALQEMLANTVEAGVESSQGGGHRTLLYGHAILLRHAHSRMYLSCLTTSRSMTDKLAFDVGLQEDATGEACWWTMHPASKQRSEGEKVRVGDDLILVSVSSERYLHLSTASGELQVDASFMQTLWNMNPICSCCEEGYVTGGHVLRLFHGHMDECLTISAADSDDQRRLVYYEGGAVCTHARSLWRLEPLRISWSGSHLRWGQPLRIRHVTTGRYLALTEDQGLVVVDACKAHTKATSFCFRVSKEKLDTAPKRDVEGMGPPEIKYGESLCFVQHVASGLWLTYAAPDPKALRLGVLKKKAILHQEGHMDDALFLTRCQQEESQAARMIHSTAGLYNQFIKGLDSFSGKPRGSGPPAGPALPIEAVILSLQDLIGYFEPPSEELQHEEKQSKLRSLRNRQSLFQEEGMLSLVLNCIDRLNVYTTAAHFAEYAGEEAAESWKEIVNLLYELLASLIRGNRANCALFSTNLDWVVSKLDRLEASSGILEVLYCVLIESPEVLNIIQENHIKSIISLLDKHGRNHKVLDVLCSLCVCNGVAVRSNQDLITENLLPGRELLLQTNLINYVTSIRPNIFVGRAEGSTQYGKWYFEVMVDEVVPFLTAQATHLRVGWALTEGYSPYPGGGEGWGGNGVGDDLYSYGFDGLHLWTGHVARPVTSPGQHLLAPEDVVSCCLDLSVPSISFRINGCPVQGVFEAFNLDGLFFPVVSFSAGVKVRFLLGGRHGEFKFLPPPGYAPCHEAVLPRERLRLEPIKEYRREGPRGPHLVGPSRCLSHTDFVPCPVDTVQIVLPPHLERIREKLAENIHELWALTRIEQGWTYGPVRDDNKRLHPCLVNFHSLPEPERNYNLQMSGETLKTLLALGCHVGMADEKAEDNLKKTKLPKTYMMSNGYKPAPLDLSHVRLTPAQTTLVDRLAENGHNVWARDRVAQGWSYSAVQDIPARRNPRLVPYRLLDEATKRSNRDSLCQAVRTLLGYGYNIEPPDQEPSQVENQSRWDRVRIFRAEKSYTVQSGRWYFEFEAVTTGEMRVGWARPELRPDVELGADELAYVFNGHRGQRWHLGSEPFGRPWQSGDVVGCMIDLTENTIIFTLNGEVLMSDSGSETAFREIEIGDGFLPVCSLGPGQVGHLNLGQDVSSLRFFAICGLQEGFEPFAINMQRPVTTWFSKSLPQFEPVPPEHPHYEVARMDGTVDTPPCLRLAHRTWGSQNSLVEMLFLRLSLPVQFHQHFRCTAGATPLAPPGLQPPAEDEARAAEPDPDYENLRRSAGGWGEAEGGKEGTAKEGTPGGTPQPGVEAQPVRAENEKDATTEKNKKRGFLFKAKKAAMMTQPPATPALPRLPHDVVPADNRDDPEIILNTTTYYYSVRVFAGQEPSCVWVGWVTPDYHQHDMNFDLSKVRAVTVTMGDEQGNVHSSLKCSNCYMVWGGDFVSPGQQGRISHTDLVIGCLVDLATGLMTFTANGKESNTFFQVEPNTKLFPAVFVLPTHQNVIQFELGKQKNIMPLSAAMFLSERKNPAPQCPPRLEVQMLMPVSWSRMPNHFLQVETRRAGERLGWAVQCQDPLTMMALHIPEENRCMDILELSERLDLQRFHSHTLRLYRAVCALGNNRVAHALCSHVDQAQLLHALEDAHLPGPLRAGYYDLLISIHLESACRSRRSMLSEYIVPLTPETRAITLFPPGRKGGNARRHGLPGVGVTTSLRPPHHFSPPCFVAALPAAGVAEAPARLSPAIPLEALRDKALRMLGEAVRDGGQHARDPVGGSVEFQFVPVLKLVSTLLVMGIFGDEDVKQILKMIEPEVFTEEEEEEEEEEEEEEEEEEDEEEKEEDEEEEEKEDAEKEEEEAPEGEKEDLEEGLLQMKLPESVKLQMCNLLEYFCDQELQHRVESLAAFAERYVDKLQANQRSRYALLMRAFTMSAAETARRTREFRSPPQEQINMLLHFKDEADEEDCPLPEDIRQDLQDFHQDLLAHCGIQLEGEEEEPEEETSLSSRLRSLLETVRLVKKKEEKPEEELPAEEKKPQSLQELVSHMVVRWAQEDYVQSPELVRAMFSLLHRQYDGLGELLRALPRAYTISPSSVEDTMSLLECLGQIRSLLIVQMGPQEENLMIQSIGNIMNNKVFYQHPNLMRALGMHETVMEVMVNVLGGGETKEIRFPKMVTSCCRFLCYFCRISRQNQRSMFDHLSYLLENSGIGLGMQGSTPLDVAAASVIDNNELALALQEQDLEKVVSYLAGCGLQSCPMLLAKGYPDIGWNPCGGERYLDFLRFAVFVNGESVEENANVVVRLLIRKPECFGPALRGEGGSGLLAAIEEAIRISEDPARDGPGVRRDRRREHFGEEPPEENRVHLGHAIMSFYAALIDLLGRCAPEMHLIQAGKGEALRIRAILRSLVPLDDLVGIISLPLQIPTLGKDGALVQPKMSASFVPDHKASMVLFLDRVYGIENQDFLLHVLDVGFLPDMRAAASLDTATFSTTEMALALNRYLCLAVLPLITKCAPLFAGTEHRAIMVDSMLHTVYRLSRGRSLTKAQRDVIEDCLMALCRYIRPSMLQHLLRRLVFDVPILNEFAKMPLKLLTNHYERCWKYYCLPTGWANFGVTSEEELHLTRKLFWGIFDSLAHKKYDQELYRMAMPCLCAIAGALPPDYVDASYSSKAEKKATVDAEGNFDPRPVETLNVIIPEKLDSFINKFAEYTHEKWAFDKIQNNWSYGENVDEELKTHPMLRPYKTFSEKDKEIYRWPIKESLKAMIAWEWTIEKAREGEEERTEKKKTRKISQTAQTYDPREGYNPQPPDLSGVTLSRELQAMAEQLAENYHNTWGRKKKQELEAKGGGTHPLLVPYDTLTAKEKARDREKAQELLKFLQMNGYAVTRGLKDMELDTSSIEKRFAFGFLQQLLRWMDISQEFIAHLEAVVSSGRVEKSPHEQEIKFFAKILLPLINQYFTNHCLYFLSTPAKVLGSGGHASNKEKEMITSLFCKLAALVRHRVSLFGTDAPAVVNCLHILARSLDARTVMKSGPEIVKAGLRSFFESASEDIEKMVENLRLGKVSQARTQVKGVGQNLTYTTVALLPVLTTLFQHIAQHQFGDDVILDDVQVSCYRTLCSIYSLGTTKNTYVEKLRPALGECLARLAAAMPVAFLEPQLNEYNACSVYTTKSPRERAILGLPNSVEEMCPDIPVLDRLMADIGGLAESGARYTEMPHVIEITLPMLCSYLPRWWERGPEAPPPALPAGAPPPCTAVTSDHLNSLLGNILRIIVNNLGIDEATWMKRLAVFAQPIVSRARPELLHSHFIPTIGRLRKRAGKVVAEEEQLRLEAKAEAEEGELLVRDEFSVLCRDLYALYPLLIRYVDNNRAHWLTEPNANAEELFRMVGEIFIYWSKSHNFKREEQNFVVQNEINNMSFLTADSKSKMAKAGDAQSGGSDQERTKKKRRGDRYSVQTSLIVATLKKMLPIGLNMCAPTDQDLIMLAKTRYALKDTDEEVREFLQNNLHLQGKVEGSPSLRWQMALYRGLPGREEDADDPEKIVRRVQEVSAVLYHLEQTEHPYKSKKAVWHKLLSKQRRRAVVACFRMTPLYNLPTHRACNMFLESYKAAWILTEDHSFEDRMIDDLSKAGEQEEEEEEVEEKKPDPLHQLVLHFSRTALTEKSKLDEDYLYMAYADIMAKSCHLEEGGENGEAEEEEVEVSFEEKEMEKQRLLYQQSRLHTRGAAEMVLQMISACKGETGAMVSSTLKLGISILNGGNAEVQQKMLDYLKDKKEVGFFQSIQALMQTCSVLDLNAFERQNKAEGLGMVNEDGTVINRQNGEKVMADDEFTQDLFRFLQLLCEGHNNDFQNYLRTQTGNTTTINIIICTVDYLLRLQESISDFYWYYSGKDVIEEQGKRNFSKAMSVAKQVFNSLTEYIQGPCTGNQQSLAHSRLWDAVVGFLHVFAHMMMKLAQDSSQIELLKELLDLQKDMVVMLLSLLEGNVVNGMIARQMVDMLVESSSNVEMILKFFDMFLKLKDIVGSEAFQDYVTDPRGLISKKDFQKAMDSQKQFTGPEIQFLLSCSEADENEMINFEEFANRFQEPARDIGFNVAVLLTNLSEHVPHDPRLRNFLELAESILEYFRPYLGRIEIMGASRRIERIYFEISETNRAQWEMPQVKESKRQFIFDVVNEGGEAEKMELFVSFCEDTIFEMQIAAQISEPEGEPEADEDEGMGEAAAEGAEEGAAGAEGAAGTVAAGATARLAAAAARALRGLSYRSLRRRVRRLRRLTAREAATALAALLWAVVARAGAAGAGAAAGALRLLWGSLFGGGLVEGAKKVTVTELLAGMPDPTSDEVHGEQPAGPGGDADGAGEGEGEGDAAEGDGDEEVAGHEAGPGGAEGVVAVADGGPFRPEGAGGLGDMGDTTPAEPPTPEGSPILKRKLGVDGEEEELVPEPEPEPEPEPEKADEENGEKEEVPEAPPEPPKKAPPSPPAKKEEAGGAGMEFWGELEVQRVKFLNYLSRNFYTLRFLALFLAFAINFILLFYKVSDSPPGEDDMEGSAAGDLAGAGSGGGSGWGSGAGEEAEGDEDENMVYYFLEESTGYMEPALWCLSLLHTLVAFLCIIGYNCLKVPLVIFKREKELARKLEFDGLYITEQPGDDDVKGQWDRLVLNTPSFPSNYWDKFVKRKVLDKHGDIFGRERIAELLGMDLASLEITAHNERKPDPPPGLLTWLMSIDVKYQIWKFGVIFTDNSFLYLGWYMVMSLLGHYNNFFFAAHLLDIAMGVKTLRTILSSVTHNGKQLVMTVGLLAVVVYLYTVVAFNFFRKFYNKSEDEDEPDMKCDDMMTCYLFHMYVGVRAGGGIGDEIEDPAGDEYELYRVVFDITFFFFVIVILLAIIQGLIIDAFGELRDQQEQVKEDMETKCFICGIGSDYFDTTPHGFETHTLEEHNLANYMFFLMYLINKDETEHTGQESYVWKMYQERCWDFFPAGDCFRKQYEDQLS
As to the kind of experiment: [3H]Ryanodine competition binding to rabbit skeletal muscle triads. Here is the method: Rabbit skeletal muscle triads were prepared as previously described (Sharp et al., J. Biol. Chem. 262: 12309-12315 (1987)). […]

The subject of assay [2] is anti-ryanodine antibodies. As to the kind of experiment: Competitive radioimmunoassay: inhibition of [3H]ryanodine-antibody binding (dextran-coated charcoal assay). The arrangement: species or system rabbit. The following applies: for binds times less tightly than ryanodine (antibody): relative to ryanodine. Here is the method: Binding was performed in triplicate in 1.5 ml polypropylene tubes. […] Following the addition of serial dilutions of antibody, the tubes were shaken and incubated for 1 h at room temperature. The tubes were placed on ice for 10 min and then 0.2 ml of stirred, ice-cold dextran-coated charcoal (0.0625% Dextran T-70, 0.625% Norit A charcoal in TSG) was added to each tube. The tubes were shaken and incubated for an additional 10 min on ice. […] Controls without antiserum were included to determine the amount of radiolabel that could not be precipitated by the charcoal.
Ryanodine derivatives were prepared by serial dilution in TSG.

Assay [3] addresses T1, skeletal muscle ryanodine receptor. As to the kind of experiment: Photoaffinity labeling of skeletal muscle triads with [3H]ABRy. It counts as binding, rabbit. How it is done:
Since [^3 H]ABRy contains a photoactivatable azido group, this compound was used to covalently label skeletal muscle triads following equilibrium binding. […] The membranes were then pelleted at 400,000×g for 15 min and resuspended in 1 ml of the binding buffer with 5 mM glutathione. The samples were placed in a plastic petri dish at 4° C. and were exposed to UV light (365 nm) at a distance of 1 cm for 45 min. The membranes were then centrifuged in a microfuge at maximum speed for 15 min. at 4° C. The pellets were resuspended in Laemmli sample buffer.
The proteins were then analyzed by SDS-PAGE (3-12% gradient gels) using the buffer system of Laemmli (Nature 227, 680-685 (1970)). Gels were stained with Coomassie blue or transferred to nitrocellulose for immunoblot analysis as previously described (Witcher et al., Science 261, 486-489 (1993)). […] Gels used for fluorography were first stained with Coomassie blue, destained, soaked in Enlightning (DuPont), and dried under vacuum. The dried gels were then exposed to Kodak XAR-5 film at -80° C. The fluorograms were also analyzed densitometrically using a Molecular Dynamics Model 300A scanning densitometer.

In assay [4] the target is T2, brain ryanodine receptor (brain membranes) (Oryctolagus cuniculus, UniProt P30957).
T2 construct: Crude rabbit brain membranes were purified as previously described; from tissue; host or cells: crude rabbit brain membranes (microsomes)
The assay can be described thus: [3H]Ryanodine competition binding to brain membranes. The arrangement: species or system rabbit. An excerpt:
(§1) Canine cardiac junctional SR vesicles were isolated as described previously (Witcher et al., J. Biol. Chem. 266, 1114-11152 (1991)). Crude rabbit brain membranes were purified as previously described (Witcher et al., J. Biol. Chem. 267, 4963-4967 (1992)).

The target of assay [5] is T3, cardiac ryanodine receptor (cardiac membranes) (Canis lupus familiaris, UniProt A0A8I3MT21).
T3 construct: Canine cardiac junctional SR vesicles were isolated as described previously; from tissue; host or cells: canine cardiac junctional SR vesicles / cardiac microsomes
As to the kind of experiment: [3H]Ryanodine competition binding to cardiac membranes. Set-up: species or system canine.
Source text: as §1

Setting [6] is: 1 nM [3H]ryanodine, 1:8,000 dilution of anti-ryanodine antibody, read-out: Inhibition of [^3 H] ryanodine-antibody binding, IC50.
Setting [7] is: from FIG. 5, unit inferred, read-out: IC50 for binding to anti-ryanodine antibodies.
Where [8] appears, read: IC50 for binding to the ryanodine receptor, rabbit skeletal membranes, from FIG. 5, unit inferred.

One may read the IC50 as the concentration that gives 50% inhibition. As to `CC1CCC2(O)C3(C)CC4(O)OC2(C1O)C1(O)C3(O)C(OC(=O)c2ccc[nH]2)C(O)(C(C)C)C41C` (centres unmarked) [Ryanodine, reference compound], in assay [1], the “binding to ryanodine receptor / skeletal membranes compared with ryanodine” value was “highest affinity”. In assay [2], the “binding to anti-ryanodine antibodies compared with ryanodine (words)” value (from here on “binding … compared with ryanodine (words)”) is recorded as “highest affinity”. For the same compound, the IC50 in assay [2] (setting [6]) was 0.0016 µM; in assay [2] (setting [7]) it was under 0.01 µM.
Take `CC(C)C1(O)C(OC(=O)c2ccc[nH]2)C2(O)C3(C)CC4(O)OC5(C(O)C(CSCCOC(=O)C(=[N+]=[N-])C(F)(F)F)CCC35O)C2(O)C41C` (centres unmarked) [Compound 7, 21-(2-[3,3,3-Trifluoro-2-diazopropionyloxy]-ethylmercapto)-ryanodine]: the values for the IC50 in assay [1] (setting [8]), in assay [2] (setting [6]) and in assay [2] (setting [7]) were under 1 µM, 0.004 µM and under 1 µM, respectively. In addition, the “binding … compared with ryanodine (words)” value in assay [2] is “little effect on the IC50”.
As for `CC(C)C1(O)C(OC(=O)c2ccc[nH]2)C2(O)C3(C)CC4(O)OC5(C(O)C(CSCCCCOC(=O)c6ccc(N=[N+]=[N-])cc6)CCC35O)C2(O)C41C` (centres unmarked) [Compound 6], the “binding to ryanodine receptor / skeletal membranes compared with ryanodine” value in assay [1] is listed as “lowest affinity”. Moreover, the IC50 in assay [1] (setting [8]) was over 0.1 µM; in assay [2] (setting [6]), 0.198 µM; in assay [2] (setting [7]), over 0.1 µM. Besides, in assay [2], the “binding … compared with ryanodine (words)” value is reported as “lowest affinity”. Also, in assay [2], the “binds times less tightly than ryanodine (antibody)” value is recorded as about 100 times.
For `CC1CCC2(O)C3(C)CC4(O)OC2(C1OC(=O)CCNC(=O)c1cc(N=[N+]=[N-])ccc1[N+](=O)[O-])C1(O)C3(O)C(OC(=O)c2ccc[nH]2)C(O)(C(C)C)C41C` (centres unmarked) [Compound 11, 10-O-(3-[2-Nitro-5-azidobenzamido]-propionyl)-ryanodine], the “binding to ryanodine receptor / skeletal membranes compared with ryanodine” value in assay [1] is “very nearly matched the affinity of native ryanodine”. For the same compound, the values for the IC50 in assay [1] (setting [8]), in assay [2] (setting [6]) and in assay [2] (setting [7]) were under 0.1 µM, 0.0032 µM and under 0.1 µM, respectively. In addition, the “binding … compared with ryanodine (words)” value in assay [2] is recorded as “very nearly matched the affinity of native ryanodine”; in assay [2] (listed as compound 11), “IC50 values similar to ryanodine”.
For `CC1CCC2(O)C3(C)CC4(O)OC2(C1OC(=O)CCNC(=O)c1ccc(C(=O)c2ccccc2)cc1)C1(O)C3(O)C(OC(=O)c2ccc[nH]2)C(O)(C(C)C)C41C` (centres unmarked) [Compound 12, 10-O-(3-[4-benzoylbenzamido]-propionyl)-ryanodine], the “binding to ryanodine receptor / skeletal membranes compared with ryanodine” value in assay [1] is reported as “very nearly matched the affinity of native ryanodine”. Besides, the concentration for half-maximal inhibition (IC50) in assay [1] (setting [8]) is under 0.1 µM; in assay [2] (setting [6]), 0.006 µM; in assay [2] (setting [7]), under 0.1 µM. Moreover, the “binding … compared with ryanodine (words)” value in assay [2] is recorded as “very nearly matched the affinity of native ryanodine”; in assay [2] (listed as compound 12) it was “IC50 values similar to ryanodine”.
Regarding `CC1CCC2(O)C3(C)CC4(O)OC2(C1O)C1(O)C3(O)C(OC(=O)c2ccc[nH]2)C(O)(C(C)C)C41C` (centres unmarked) [[^3 H]ryanodine, reference compound], the Kd in assay [2] (method of Muller, read-out: average antibody apparent dissociation constant (Kd) for the [3H]ryanodine-antibody complex) was 0.001 µM.
`CC1CCC2(O)C3(C)CC4(O)OC2(C1OC(=O)CCNC(=O)c1ccc(N=[N+]=[N-])cc1)C1(O)C3(O)C(OC(=O)c2ccc[nH]2)C(O)(C(C)C)C41C` (centres unmarked) [Compound 10, 10-O-(3-[4-Azidobenzamido]-propionyl)-ryanodine]: the “binding to ryanodine receptor / skeletal membranes compared with ryanodine” value in assay [1] is listed as “very nearly matched the affinity of native ryanodine”. In addition, the half-inhibitory concentration (IC50) is under 0.1 µM in assay [1] (setting [8]); about 0.037 µM in assay [1] (half-maximal inhibition of [3H]ryanodine binding to triads, skeletal muscle triads, 1 nM [3H]ryanodine, 1 hr at 37° C.); 0.025 µM in assay [4]; 0.0032 µM in assay [2] (setting [6]); under 0.1 µM in assay [2] (setting [7]); 0.089 µM in assay [5]. Moreover, the “proteins bound (specificity, words)” value in assay [3] was “only is capable of binding to the 565 kDa ryanodine receptor/Ca^2+ release channel”. The “binding … compared with ryanodine (words)” value in assay [2] is listed as “very nearly matched the affinity of native ryanodine”; in assay [2] (listed as compound 10), “IC50 values similar to ryanodine”.
For `CC(C)C1(O)C(OC(=O)c2ccc[nH]2)C2(O)C3(C)CC4(O)OC5(C(O)C(CSCCCCO)CCC35O)C2(O)C41C` (centres unmarked) [Compound 4, 21-(4-Hydroxybutylmercapto)-ryanodine], the figures for the IC50 in assay [1] (setting [8]), in assay [2] (setting [6]) and in assay [2] (setting [7]) were under 1 µM, 0.025 µM and under 1 µM, respectively. Further, the “binds times less tightly than ryanodine (antibody)” value in assay [2] was “about 10 times”.
